Measurements published in patent US11975051B1, “Therapeutic peptides and uses thereof” (priority 2022, dated 2024).
Like-named read-outs stand apart in the source and are kept apart here. Where no end group is shown, it is not given here. [ ]: non-standard residue; d: D form.

Tests used:
ALS patient-derived ASCs = assay: Stressed ALS patient-derived ASCs treated with peptides, SeaHorse analytics (Example 6); format: cell-based, human; conditions: tested at 0.5 and/or 5 mM (TP-5 0.01-100 mM), DMSO/H2O
Excerpt: ALS patient-derived ASCs showing hypermetabolism and lipid sequestration were stressed and treated with peptides (shown below, column 2) and effect of the peptide measured with SeaHorse analytics.

IL-6 = IL-6 lowering in ConA stimulated peripheral blood mononuclear cells; format: cell-based, human; conditions: 5 μg/mL ConA 72 hours, N=3
Excerpt: (§1) The influence of proinflammatory cytokines on the immunoregulatory function of immune cells from healthy donors may be assessed using mitogen-stimulated PBMC responses, which can be measured by determining the effect of test compounds on cytokine levels after stimulation by Concanavilin A (“ConA”). See Arneth, CURRENT PROTOCOLS IN CYTOMETRY 6.28 supplement 51 (2010); A. Erhardt et al., Immunology and Liver Disease Karger (2010); W. Ge et al., INTERNATIONAL IMMUNOPHARMACOLOGY 85 (2020); S. Malchow et al., BICHIMICA ET BIOPHYSICA ACTA 1812:290-301 (2011); A. Thomazelli et al., IMMUNOPHARMACOLOGY AND IMMUNOTOXICOLOGY, 40:5:387-392 (2018); N. Umeda et al., LEUKOCYTE BIOLOGY 791-801 (2019); H. Wang et al., WORLD JOURNAL OF GASTROENTEROLOGY 119-125 (2012).
(§2) Normal human PBMCs were stimulated with 5 μg/mL ConA for 72 hours followed by treatment with test compound, each of which are set forth in Table 6, at either 4.15 μM or 41.5 μM. Data represents mean of either TNFα or interleukin IL-6 lowering after ConA stimulation±SD. 2-way ANOVA with Dunnet's multiple comparison test; * p<0.05 (represented as +); ** p<0.01 (represented as ++); *** p<0.001 **** (represented as +++); p<0.0001 (represented as ++++); N=3 replicates. Both TNFα and IL-6 are inflammatory cytokines for which the lowering would be expected to provide therapeutic benefit for a variety of diseases. For example, TNFα is implicated in the inflammation associated with neurodegenerative and inflammatory disorders (see, e.g., G. D. Kalliolias et al., TNF biology, pathogenic mechanisms and emerging therapeutic strategies, 12(1) NATURE REVIEWS RHEUMATOLOGY 49-62 (2016)) as is […] (see, e.g., S. Kaur et al., A panoramic review of IL-6: Structure, pathophysiological roles and inhibitors, 28(5) BIOORG. MED. CHEM. 115327 (2020)).

TNFα = TNFα lowering in ConA stimulated peripheral blood mononuclear cells; format: cell-based, human; conditions: 5 μg/mL ConA 72 hours, N=3
Excerpt: as §1, §2

ALS patients = conditions: cited from earlier work
patients with ALS = conditions: cited from earlier work
[1] = Mouse (liver) microsomal stability; format: in vitro ADME; conditions: mouse, liver microsomes
[2] = in vivo; cited from earlier work
[3] = Pharmacokinetics in mice dosed IV, SC and PO; format: in vivo, mouse; conditions: mouse, in vivo, mice
[4] = also when given with other drugs; cited from earlier work
renal dialysis patients = conditions: cited from earlier work
Mouse plasma stability = format: in vitro ADME; conditions: read-out: Mouse Plasma Stability t½
TDP43 model = assay: Thymalfasin in the TDP43 (Prp-TDP43^A315T) ALS mouse model; format: in vivo
Excerpt: (§3) In mice, thymalfasin is metabolized to the active molecule thymopentin. Because mice process the pro-molecule thymalfasin into thymopentin as do humans, thymalfasin may illuminate the effects of thymopentin by increasing target engagement afforded by the pro-molecule.

SOD1^G93A model = assay: Thymalfasin in the SOD1^G93A ALS mouse model; format: in vivo
Excerpt: as §3

Compound	Conc. with positive effect (ALS patient-derived ASCs)	IL-6 lowering after ConA stimulation (significance) (IL-6; 4.15 μM test compound)	IL-6 lowering after ConA stimulation (significance) (IL-6; 41.5 μM test compound)	TNFα lowering after ConA stimulation (significance) (TNFα; 4.15 μM test compound)	TNFα lowering after ConA stimulation (significance) (TNFα; 41.5 μM test compound)	also measured
1 (RKDVY) [Compound 1]	none	+ (* p<0.05 (represented as +))	+++ (*** p<0.001 **** (represented as +++))	+++ (*** p<0.001 **** (represented as +++))	++++ (p<0.0001 (represented as ++++))	
6 (Ac-[dY][dV][dD][dK][dR]-NHMe) [Compound 6]	5 mM	+ (* p<0.05 (represented as +))	++++ (p<0.0001 (represented as ++++))	++++ (p<0.0001 (represented as ++++))	++++ (p<0.0001 (represented as ++++))	
8 (Ac-[dY][dV][dD][dK][dR]-NH2) [Compound 8]	5 mM					
CC1=NN(c2ccccc2)C(=O)C1 [Edavarone]						slowing of the progression of disease (ALS patients): 33%
Nc1nc2ccc(OC(F)(F)F)cc2s1 [Riluzole]						extension of life (patients with ALS): several months
Ac-Arg-Lys-Asp-Val-Tyr-NH2 (Ac-RKDVY-NH2) [Compound 3]	none		+++ (*** p<0.001 **** (represented as +++))	+ (* p<0.05 (represented as +))	++ (** p<0.01 (represented as ++))	
Ac-Arg-Lys-Asp-Val-Tyr-NHMe (Ac-RKDVY-NHMe; SMILES CNC(=O)[C@H](Cc1ccc(O)cc1)NC(=O)[C@@H](NC(=O)[C@H](CC(=O)O)NC(=O)[C@H](CCCCN)NC(=O)[C@H](CCCNC(=N)N)NC(C)=O)C(C)C) [Compound 5]	none	+ (* p<0.05 (represented as +))	++ (** p<0.01 (represented as ++))		+ (* p<0.05 (represented as +))	
Arg-Lys-Asp-Val-Tyr-NH2 (RKDVY-NH2) [Compound 2]	none	++ (** p<0.01 (represented as ++))	+++ (*** p<0.001 **** (represented as +++))	++ (** p<0.01 (represented as ++))	++ (** p<0.01 (represented as ++))	
Arg-Lys-Asp-Val-Tyr-NHMe (RKDVY-NHMe) [Compound 4]	none	+ (* p<0.05 (represented as +))	++ (** p<0.01 (represented as ++))	++ (** p<0.01 (represented as ++))	+++ (*** p<0.001 **** (represented as +++))	
D-Tyr-D-Val-D-Asp-D-Lys-D-Arg-NH2 ([dY][dV][dD][dK][dR]-NH2) [Compound 7]	0.5 mM					
RKDVY [TP-5, Arg-Lys-Asp-Val-Tyr, reference compound]						half-life ([1]; mouse liver microsomes, read-out: stability in mouse liver microsomes, half-life): 23.1 min; half-life ([1]; mouse microsomes, read-out: Mouse Microsomal Stability t½): > 60 min; half-life of exogenous thymopentin [2]: seconds; half-life ([3]; IV, read-out: IV t½, mice): 5.58 min; bioavailability ([3]; PO, read-out: PO % F, mice): 36%; AUC(0-inf) ([3]; PO, read-out: PO AUCinf): 1270 ng·h/mL; Cmax ([3]; PO, read-out: PO Cmax): 1370 ng/mL; half-life ([3]; PO, read-out: PO t½, mice): 7.72 min; bioavailability ([3]; SC, read-out: SC % F, mice): 39%; AUC(0-inf) ([3]; SC, read-out: SC AUCinf): 126 ng·h/mL; Cmax ([3]; SC, read-out: SC Cmax): 133 ng/mL; half-life ([3]; SC, read-out: SC t½, mice): 8.92 min; safety / tolerability [4]: well tolerated; IL-6, IL-8, TNF and CRP (renal dialysis patients): reduced; superoxide dismutase (SOD), state of oxidative stress (renal dialysis patients): increasing; half-life (Mouse plasma stability): 23.1 min
thymalfasin: thymosin α (Tα1), 28 amino acids, commercially available as ZADAXIN; pro-molecule metabolized to thymopentin (Ac-SDAAVDTSSEITTKDLKEKKEVVEEAEN; UniProt P06454 2-29, looked up)						growth and strength (based on wire hang tests) (TDP43 model; TDP-43 mouse model): improvement; disease phenotype (TDP43 model; TDP-43 mouse model, one cohort): prevented in one cohort; Iba1 and brain GFAP, measures of inflammation (TDP43 model; treated mice): Statistically-significant reduction; ubiquitin in brain tissue and spinal cord on histopathology (SOD1^G93A model): statistically-significant reduction
